What all share (assay type): functional, cell-based
The subject of assay [1] is HL-60. Nature of the assay: Antiproliferative activity against human HL60 cells after 72 hrs by CCK8 assay. The conditions noted are these: HL-60, 72 h. A general note: Tetrazolium assays rely on reduction of a dye to a coloured formazan, in cell work by metabolically active cells.
The subject of assay [2] is A549. Nature of the assay: Antiproliferative activity against human A549 cells after 72 hrs by sulforhodamine B assay. The conditions noted are these: A549, 72 h. For orientation: In SRB staining, fixed cells bind dye roughly in proportion to their protein.
Assay [3] relates to SGC-7901. As to the kind of experiment: Antiproliferative activity against human SGC7901 cells after 72 hrs by sulforhodamine B assay. The following applies: SGC-7901, 72 h.

For `Cc1ccc2cc(C(C)C)c(O)cc2c1CC[C@H]1OC(C)(C)OC1(C)C`, the IC50 (in general, the concentration needed to halve the response being measured) in assay [1] came to 49.4 µM; in assay [2], 23.5 µM; in assay [3], 33.1 µM.

For the compound `Cc1ccc(/C=C(\C(=O)O)C(C)C)c2c1CC[C@H](C(C)(C)O)OC2=O`, the IC50 in assay [1], in assay [2] and in assay [3] was more than 100 µM each time.

`CC(=O)Oc1cc2c(CCC=C(C)C)c(C)ccc2cc1C(C)C`: the IC50 in assay [1] amounted to 20.8 µM; in assay [2], 25.5 µM; in assay [3], 34.4 µM.

Turning to `CC(=O)Oc1cc2c(CC[C@H]3OC(C)(C)OC3(C)C)c(C)ccc2cc1C(C)C`, the IC50 amounted to 17.2 µM in assay [1], 28.9 µM in assay [2] and 36.7 µM in assay [3].

As to `Cc1ccc(/C=C(\C(=O)O)C(C)C)c2c1CC[C@@H](C(C)(C)O)OC2=O`, the half-maximal inhibitory concentration (IC50) in assay [1], in assay [2] and in assay [3] was more than 100 µM in each case.

Turning to `COc1cc2c(cc1C(C)C)C(=O)C=C1C(C)(C)CCCC12C` (single isomer, unassigned), the IC50 in assay [1], in assay [2] and in assay [3] was more than 100 µM throughout.

For the compound `CC(=O)Oc1cc2c(CC[C@H](O)C(C)(C)O)c(C)ccc2cc1C(C)C`, the IC50 in assay [1] is 21.7 µM; in assay [2], 50.5 µM; in assay [3], 45.8 µM.

Consider `CC(=O)Oc1cc2c(CC[C@@H](O)C(C)(C)O)c(C)ccc2cc1C(C)C`, for which the half-inhibitory concentration (IC50) is 41.2 µM in assay [1], 48.6 µM in assay [2] and 47.5 µM in assay [3].

On to `Cc1ccc2cc(C(C)C)c(O)cc2c1CC[C@@H]1OC(C)(C)OC1(C)C`, for which the IC50 came out at 45.5 µM in assay [1], 26.2 µM in assay [2] and 31.7 µM in assay [3].

Take `CC(=O)Oc1cc2c(cc1C(C)C)C(=O)C=C1C(C)(C)CCCC12C` (single isomer, unassigned): the half-maximal inhibitory concentration (IC50) in assay [1] was determined as 25.7 µM; in assay [2], 26.9 µM; in assay [3], 22.9 µM.

With `CC(=O)Oc1cc2c(CC[C@@H]3OC(C)(C)OC3(C)C)c(C)ccc2cc1C(C)C`, the IC50 in assay [1] was found to be 16 µM; in assay [2], 68.5 µM; in assay [3], 88.9 µM.

The record behind these values is ChEMBL document CHEMBL4382251, “A Pair of Enantiomeric Bis- seco-abietane Diterpenoids from Cryptomeria fortunei” (J Nat Prod, 2018).
